Data taken from ChEMBL document CHEMBL6103613 (J Med Chem, 2025).
Converted amounts (≈) assume the structure as drawn. The source made the active and inactive calls. No cut-off for these calls is given here.

Assays:
Staphylococcus aureus [1] = test: Antibacterial activity against methicillin-resistant Staphylococcus aureus infected in kunming mouse pneumonia model assessed as decrease in IL-10 expression in lung at 5 mg/kg, ip measured upto 8 days; format: functional, organism-based; conditions: time <= 8.0 day
Staphylococcus aureus [2] = test: Antimicrobial activity against Staphylococcus aureus at 100 degreeC incubated for 0.5 hrs; format: functional, organism-based
Staphylococcus aureus [3] = test: Inhibition of biofilm formation in Staphylococcus aureus at 1 to 16 times MIC by hochest33342/PI staining based analysis; format: functional
[4] = Hemolytic activity against mouse Red blood cell incubated for 1 hr; format: toxicity, cell-based; conditions: erythrocyte
Staphylococcus aureus [5] = test: Upregulation of LiaF expression in Staphylococcus aureus at 12.5 microg/ml incubated for 3 hrs by RNA sequencing analysis; format: functional; conditions: dose 12.5 µg/ml
[6] = Toxicity in kunming mouse assessed as effect on lung morphology at 5 mg/kg, ip; format: organism-based; conditions: in vivo
Staphylococcus aureus [7] = test: Upregulation of SgtB expression in Staphylococcus aureus at 12.5 microg/ml incubated for 3 hrs by RNA sequencing analysis; format: functional; conditions: dose 12.5 µg/ml
Peptidoglycan = test: Binding affinity to Staphylococcus aureus peptidoglycan assessed as change in entropy by ITC analysis
Staphylococcus aureus [8] = test: Antibiofilm activity in Staphylococcus aureus assessed as biofilm eradication at 8 times MIC relative to control; format: functional
RAW264.7 = test: Cytotoxicity against mouse RAW264.7 cells assessed as cell viability at 6.25 to 100 microg/ml incubated for 24 hrs by MTT assay; format: toxicity, cell-based; conditions: raw264.7, 24 h
Enterococcus gallinarum = test: Antimicrobial activity against Enterococcus gallinarum ATCC 49573 assessed as inhibition of visible bacterial growth incubated for 18 hrs by CLSI based analysis; format: functional
[9] = Toxicity in mouse assessed as lung damage at 50 mg/kg, ip measured for 7 days by H and E staining based analysis; format: organism-based; conditions: in vivo, 168 h, time 7 day
Staphylococcus aureus [10] = test: Induction of ROS production in Staphylococcus aureus assessed as increase in fluorescence intensity at 2 times MIC by DCFH-DA probe based assay; format: functional, organism-based
[11] = Toxicity in mouse assessed as kidney damage at 50 mg/kg, ip measured for 7 days by H and E staining based analysis; format: organism-based; conditions: in vivo, 168 h, time 7 day
Staphylococcus aureus [12] = test: Upregulation of CwrA expression in Staphylococcus aureus at 12.5 microg/ml incubated for 3 hrs by RNA sequencing analysis; format: functional; conditions: dose 12.5 µg/ml
Cell membrane [13] = test: Disruption of cell membrane integrity in Staphylococcus aureus at 4 times of MIC incubated for 1 mins by Propidium iodide staining based analysis; format: subcellular
[14] = Toxicity in mouse assessed as spleen damage at 50 mg/kg, ip measured for 7 days by H and E staining based analysis; format: organism-based; conditions: in vivo, 168 h, time 7 day
Staphylococcus aureus [15] = test: Antimicrobial activity against Staphylococcus aureus assessed as inhibition of visible bacterial growth incubated for 18 hrs by CLSI based analysis; format: functional
Staphylococcus aureus [16] = test: Antibacterial activity against methicillin-resistant Staphylococcus aureus infected in kunming mouse pneumonia model assessed as reduction in colony count in lung at 5 mg/kg, ip measured upto 8 days; format: functional, organism-based; conditions: time <= 8.0 day
[17] = Stability of compound in mouse serum measured after 24 hrs; format: ADME, cell-free
[18] = Toxicity in mouse assessed as change in body weight gain at 50 mg/kg, ip measured for 7 days; format: organism-based; conditions: in vivo, 168 h, time 7 day
Staphylococcus aureus [19] = test: Upregulation of fmtA expression in Staphylococcus aureus at 12.5 microg/ml incubated for 3 hrs by RNA sequencing analysis; format: functional; conditions: dose 12.5 µg/ml
Staphylococcus aureus [20] = test: Antimicrobial activity against Staphylococcus aureus ATCC 25923 assessed as inhibition of visible bacterial growth incubated for 18 hrs by CLSI based analysis; format: functional
[21] = Hemolytic activity against mouse Red blood cells at 100 microg/ml incubated for 1 hr relative to control; format: toxicity, cell-based, Erythrocyte; conditions: at 100 µg/mL, read-out: Activity
[22] = Toxicity in mouse assessed as change in food intake at 50 mg/kg, ip measured for 7 days; format: organism-based; conditions: in vivo, 168 h, time 7 day
[23] = Toxicity in mouse assessed as survival rate at 50 mg/kg, ip measured for 7 days; format: organism-based; conditions: in vivo, time 7 day
Staphylococcus aureus [24] = test: Antimicrobial activity against Staphylococcus aureus incubated for 0.5 hrs in presence of Fe3+; format: functional, organism-based
Staphylococcus aureus [25] = test: Antimicrobial activity against methicillin-resistant Staphylococcus aureus clinical isolate 4 assessed as inhibition of visible bacterial growth incubated for 18 hrs by CLSI based analysis; format: functional
Staphylococcus aureus [26] = test: Inhibition of biofilm formation in Staphylococcus aureus at 1 to 16 times MIC by crystal violet staining based analysis; format: functional
Staphylococcus aureus [27] = test: Upregulation of dltB expression in Staphylococcus aureus at 12.5 microg/ml incubated for 3 hrs by RNA sequencing analysis; format: functional; conditions: dose 12.5 µg/ml
Staphylococcus aureus [28] = test: Antibacterial activity against methicillin-resistant Staphylococcus aureus infected in kunming mouse pneumonia model assessed as decrease in TNF-alpha expression in lung at 5 mg/kg, ip measured upto 8 days; format: functional, organism-based; conditions: time <= 8.0 day
Enterococcus faecalis = test: Antimicrobial activity against Enterococcus faecalis ATCC 19433 assessed as inhibition of visible bacterial growth incubated for 18 hrs by CLSI based analysis; format: functional
Staphylococcus aureus [29] = test: Antimicrobial activity against methicillin-resistant Staphylococcus aureus clinical isolate 3 assessed as inhibition of visible bacterial growth incubated for 18 hrs by CLSI based analysis; format: functional
Cell membrane [30] = test: Disruption of cell membrane integrity in Staphylococcus aureus at 4 times of MIC incubated for 30 mins by Propidium iodide staining based analysis; format: subcellular
[31] = Therapeutic index, ratio of HC5 for hemolytic activity in mouse Red blood cell to MIC for antimicrobial activity against Staphylococcus aureus ATCC 25923 assessed as inhibition of visible bacterial growth; format: toxicity, cell-based, RBC; conditions: red blood cells, read-out: TI
Staphylococcus aureus [32] = test: Upregulation of dltD expression in Staphylococcus aureus at 12.5 microg/ml incubated for 3 hrs by RNA sequencing analysis; format: functional; conditions: dose 12.5 µg/ml
[33] = Toxicity in mouse assessed as change in behavior at 50 mg/kg, ip measured for 7 days; format: organism-based; conditions: in vivo, 168 h, time 7 day
Staphylococcus aureus [34] = test: Antimicrobial activity against Staphylococcus aureus at pH 5.4 to 6.4 incubated for 0.5 hrs; format: functional, organism-based
Staphylococcus aureus [35] = test: Antimicrobial activity against Staphylococcus aureus incubated for 0.5 hrs in presence of Ca2+; format: functional, organism-based
[36] = Toxicity in mouse assessed as liver damage at 50 mg/kg, ip measured for 7 days by H and E staining based analysis; format: organism-based; conditions: in vivo, 168 h, time 7 day
Staphylococcus aureus [37] = test: Upregulation of ahpF expression in Staphylococcus aureus at 12.5 microg/ml incubated for 3 hrs by RNA sequencing analysis; format: functional; conditions: dose 12.5 µg/ml
Staphylococcus aureus [38] = test: Antibacterial activity against methicillin-resistant Staphylococcus aureus infected in kunming mouse keratitis model measured upto 24 hrs; format: functional, organism-based
Staphylococcus aureus [39] = test: Antibacterial activity against methicillin-resistant Staphylococcus aureus infected in kunming mouse pneumonia model assessed as decrease in IL-6 expression in lung at 5 mg/kg, ip measured upto 8 days; format: functional, organism-based; conditions: time <= 8.0 day
[40] = Toxicity in mouse assessed as heart damage at 50 mg/kg, ip measured for 7 days by H and E staining based analysis; format: organism-based; conditions: in vivo, 168 h, time 7 day
Staphylococcus aureus [41] = test: Antimicrobial activity against methicillin-resistant Staphylococcus aureus clinical isolate 2 assessed as inhibition of visible bacterial growth incubated for 18 hrs by CLSI based analysis; format: functional
Staphylococcus aureus [42] = test: Upregulation of superoxide dismutase expression in Staphylococcus aureus at 12.5 microg/ml incubated for 3 hrs by RNA sequencing analysis; format: functional; conditions: dose 12.5 µg/ml

Compound: CC(C)[C@@H]1NC(=O)[C@@H](C(C)C)NC(=O)[C@H](C(C)C)NC(=O)[C@@H](CCCCN)NC(=O)[C@H](Cc2c(C(c3ccccc3)(c3ccccc3)c3ccccc3)[nH]c3ccccc23)NC(=O)[C@@H](C(C)C)NC(=O)[C@@H]2CSC1N2
- Activity (Staphylococcus aureus [1]): Active
- Activity (Staphylococcus aureus [2]): Active
- inhibition (INH) (Staphylococcus aureus [3]): ~100%
- HC5 [4]: > 100 µg/mL
- Activity (Staphylococcus aureus [5]): Active
- Activity [6]: Non-toxic
- Activity (Staphylococcus aureus [7]): Active
- TdeltaS (Peptidoglycan): 7.55 kcal/mol
- Activity (Staphylococcus aureus [8]): 90%
- Activity (RAW264.7): Non-toxic
- MIC (Enterococcus gallinarum): 12.5 µg/mL (≈ 12 µM)
- Activity [9]: Non-toxic
- Activity (Staphylococcus aureus [10]): Active
- Activity [11]: Non-toxic
- Activity (Staphylococcus aureus [12]): Active
- Activity (Cell membrane [13]): 26.2%
- Activity [14]: Non-toxic
- MIC (Staphylococcus aureus [15]): 3.13 µg/mL (≈ 3.01 µM)
- Activity (Staphylococcus aureus [16]): Active
- Stability [17]: Stable
- Activity [18]: Non-toxic
- Activity (Staphylococcus aureus [19]): Active
- MIC (Staphylococcus aureus [20]): 6.25 µg/mL (≈ 6.01 µM)
- hemolysis at 1 h, 100 microg/ml [21]: < 5%
- Activity [22]: Non-toxic
- survival at 168 h [23]: 100%
- Activity (Staphylococcus aureus [24]): Active
- MIC (Staphylococcus aureus [25]): 6.25 µg/mL (≈ 6.01 µM)
- inhibition (INH) (Staphylococcus aureus [26]): ~100%
- Activity (Staphylococcus aureus [27]): Active
- Activity (Staphylococcus aureus [28]): Active
- MIC (Enterococcus faecalis): 12.5 µg/mL (≈ 12 µM)
- MIC (Staphylococcus aureus [29]): 12.5 µg/mL (≈ 12 µM)
- Activity (Cell membrane [30]): 46.7%
- selectivity ratio [31]: > 16
- Activity (Staphylococcus aureus [32]): Active
- Activity [33]: Non-toxic
- Activity (Staphylococcus aureus [34]): Active
- Activity (Staphylococcus aureus [35]): Active
- Activity [36]: Non-toxic
- Activity (Staphylococcus aureus [37]): Active
- Activity (Staphylococcus aureus [38]): Active
- Activity (Staphylococcus aureus [39]): Active
- Activity [40]: Non-toxic
- MIC (Staphylococcus aureus [41]): 6.25 µg/mL (≈ 6.01 µM)
- Activity (Staphylococcus aureus [42]): Active
